{
  "source": "patent US7879566B2",
  "about": "“Methods for the identification of modulators of OSGPR114 or OSGPR78 activity, and their use in the treatment of disease” (OSI Pharmaceuticals, Inc., priority 2003, dated 2011)",
  "key": {"OSGPR78": {"target": "T1, OSGPR78 (Homo sapiens, UniProt P43657, I33V)", "T1 construct": "expressed in transfected cells; host or cells: engineered yeast (GPA1 replaced by G-alpha chimeras, STE3 deleted; Fus1p-LacZ reporters)", "T1 sequence (P43657 1-344 I33V)": "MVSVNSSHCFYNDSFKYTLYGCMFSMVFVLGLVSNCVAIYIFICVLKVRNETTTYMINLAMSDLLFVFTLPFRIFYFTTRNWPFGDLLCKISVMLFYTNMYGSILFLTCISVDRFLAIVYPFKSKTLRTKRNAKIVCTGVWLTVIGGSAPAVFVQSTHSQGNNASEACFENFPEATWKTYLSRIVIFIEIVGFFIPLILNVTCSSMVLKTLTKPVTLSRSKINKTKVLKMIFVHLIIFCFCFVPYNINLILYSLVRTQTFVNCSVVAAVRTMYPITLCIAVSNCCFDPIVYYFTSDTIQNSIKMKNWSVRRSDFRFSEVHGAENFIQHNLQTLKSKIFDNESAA", "test": "Yeast Fus1p-LacZ β-galactosidase reporter assay, OSGPR78-transformed yeast", "format": "cell-based", "conditions": "yeast transformed with OSGPR78", "from_the_text": "(§1) The yeast cell-based reporter assays have previously been described in the literature (e.g. see Miret J. J., et. al. (2002) J. Biol. Chem. 277:6881-6887; Campbell R. M., et. al. (1999) Bioorg Med. Chem. Lett. 9:2413-2418; King K., et. al. (1990) Science. 250:121-123); WO 99/14344; WO 00/12704; and U.S. Pat. No. 6,100,042). Briefly, yeast cells have been engineered such that the endogenous yeast G-alpha (GPA1) has been deleted and replaced with G-protein chimeras constructed using multiple techniques. Additionally the endogenous yeast alpha-cell GPCR, STE3 has been deleted to allow for a […] expression of a mammalian GPCR of choice. In the yeast, elements of the pheromone signaling transduction pathway, which are conserved in eukaryotic cells (for example, the mitogen-activated protein kinase pathway), drive the expression of Fus1. By placing β-galactosidase (LacZ) under the control of the Fus1 promoter (Fus1p), a system has been developed whereby receptor activation leads to an enzymatic read-out. Different yeast strains (e.g. FIG. 6) denote the presence of different G-alpha chimeras (see “yeast reporter assays” in Results section below for definitions).\n(§2) Yeast cells are transformed by an adaptation of the Lithium acetate method described by Agatep et.al. (Agatep, R., et. al. (1998) Transformation of Saccharomyces cerevisiae by the lithium acetate/single-stranded carrier DNA/polyethylene glycol (LiAc/ss-DNA/PEG) protocol. Technical Tips Online, Trends Journals, Elsevier). Briefly, yeast cells are grown overnight on yeast tryptone plates (YT). Carrier single-stranded DNA (10 μg), 2 μg of each of two Fus1p-LacZ reporter plasmids (one with URA3 selection marker and one with TRP1), 2 μg of OSGPR114 or OSGPR78 in yeast expression vector (2p origin of replication) and a lithium acetate/polyethylene glycol/TE buffer is pipetted into an Epindorf tube. The yeast expression plasmid containing the receptor/no receptor control has a LEU2 marker. Yeast cells are inoculated into this mixture and the reaction proceeds at 30° C. for 60 minutes. The yeast cells are then heat-shocked at 42° C. for 15 minutes. The cells are then washed and spread on selection plates. The selection plates are synthetic defined yeast media minus LEU, URA and TRP (SD-LUT). After incubating at 30° C. for 2-3 days, colonies that grow on the selection plates are then tested in the LacZ assay.\n(§3) In order to perform fluorometric enzyme assays for β-galactosidase, yeast cells were grown overnight in liquid SD-LUT media to an unsaturated concentration (i.e. the cells are still dividing and have not yet reached stationary phase). They are diluted in fresh media to an optimal assay concentration and 90 μL of yeast cells were added to 96-well black polystyrene plates (Costar). Compounds, dissolved in ethanol and diluted in a 1% BSA solution to 10× concentration, were added to the plates and the yeast are placed at 30° C. for 4 h. After 4 h, the substrate for the β-galactosidase is added to each well: The substrate may yield a fluorescent or calorimetric read-out upon the activity of the β-galactosidase. In these experiments, Fluorescein di(β-D-galactopyranoside) was used (FDG), a substrate for the enzyme that releases fluorescein, allowing a fluorometric read-out. 20 μL of 500 μM FDG was used. After incubation of the cells with the substrate for 30-60 mins, 20 μL of 1 M sodium carbonate is added to terminate the reaction and enhance the fluorescent signal. The plates were then read in a fluorometer at 485/535 nm. As an alternate read-out system, the yeast are also engineered with a Fus1p-HIS gene which means that activation of the receptor can also be measured through the growth of the yeast in a […] media."}, "OSGPR114 [1]": {"target": "T2, OSGPR114 (Homo sapiens, UniProt Q9H1C0)", "T2 construct": "expressed in transfected cells; host or cells: engineered yeast (GPA1 replaced by G-alpha chimeras, STE3 deleted; Fus1p-LacZ reporters)", "T2 sequence (Q9H1C0 whole entry)": "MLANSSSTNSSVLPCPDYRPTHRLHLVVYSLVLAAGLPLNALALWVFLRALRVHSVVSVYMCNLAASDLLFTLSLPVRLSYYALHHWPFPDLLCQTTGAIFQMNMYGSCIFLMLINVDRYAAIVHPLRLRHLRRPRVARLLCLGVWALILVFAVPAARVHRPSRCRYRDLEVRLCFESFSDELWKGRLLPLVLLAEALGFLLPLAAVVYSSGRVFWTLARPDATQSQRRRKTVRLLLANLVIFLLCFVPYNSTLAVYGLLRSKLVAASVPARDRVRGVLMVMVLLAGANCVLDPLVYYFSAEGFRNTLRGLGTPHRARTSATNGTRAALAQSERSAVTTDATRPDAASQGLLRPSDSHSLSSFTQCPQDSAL", "test": "Yeast Fus1p-LacZ β-galactosidase reporter assay, OSGPR114-transformed yeast", "format": "cell-based", "conditions": "for effect on fluorescence (β-galactosidase reporter): yeast transformed with OSGPR114", "from_the_text": "as §1, §2, §3"}, "[2]": {"tested_on": "vector transformed yeast cells", "test": "Yeast Fus1p-LacZ reporter assay, vector control (no receptor)", "format": "cell-based", "conditions": "vector controls, same yeast strains", "from_the_text": "as §1, §2\nas §3, with “Compounds, dissolved in ethanol and diluted in a 1% BSA solution to 10× concentration, were added to the plates and the yeast are placed at 30° C. for 4 h.” left out, “20 μL of 500 μM FDG was used. After incubation of the cells with the substrate for 30-60 mins, 20 μL of 1 M sodium carbonate is added to terminate the reaction and enhance the fluorescent signal.” left out"}, "OSGPR114 [3]": {"target": "T2, OSGPR114", "test": "[35S]-GTPγS binding, CHO-OSGPR114 membranes", "format": "biochemical", "conditions": "CHO-OSGPR114 versus CHO membranes", "experimental": "For example, in one method employed herein, membranes from untransfected CHO cells as well as OSGPR114 stable clones were prepared using the method described by Griffin et al (1998). Membranes were homogenized in buffer containing 50 mM Tris, 3 mM MgCl2, 100 mM NaCl, 1 mM EDTA, 1 uM GDP, 0.1% fatty acid free BSA, 0.01% Saponin, pH 7.4. Assays were carried out in a reaction mixture containing 50 mL of membrane suspension (5 mg/well), 50 mL of [^35S]-GTPgS binding (final concentration 0.5 nM: 50 mL aliquot counted to determine precise concentration employed) and either 50 mL of assay buffer, 50 mL of unlabeled GTPgS (defining nonspecific binding:final concentration is 10 mM) or 50 mL of each concentration of LPA. Incubations were carried out in triplicate for 60 minutes at 37° C. Reactions were terminated by rapid filtration over GF/B filters presoaked in ice cold wash buffer for 90 minutes. The filters were then washed 6 times with 0.3 mL of ice cold wash buffer (50 mM Tris, 5 mM MgCl2, pH 7.4). The filters were dried, covered with Microscint-20, dark adapted for 5 minutes, and counted on a 2 minute [^35S] protocol on a Packard TopCount LSC."}, "endogenous CHO receptor": {"target": "endogenous CHO receptor", "test": "[35S]-GTPγS binding, parental CHO membranes", "format": "biochemical, hamster", "conditions": "1 nM to 300 nM applied", "procedure": "For example, in one method employed herein, membranes from untransfected CHO cells as well as OSGPR114 stable clones were prepared using the method described by Griffin et al (1998). Membranes were homogenized in buffer containing 50 mM Tris, 3 mM MgCl2, 100 mM NaCl, 1 mM EDTA, 1 uM GDP, 0.1% fatty acid free BSA, 0.01% Saponin, pH 7.4. Assays were carried out in a reaction mixture containing […], 50 mL of [^35S]-GTPgS binding (final concentration 0.5 nM: 50 mL aliquot counted to determine precise concentration employed) and either 50 mL of assay buffer, 50 mL of unlabeled GTPgS (defining nonspecific binding:final concentration is […]) or 50 mL of each concentration of LPA. Incubations were carried out in triplicate for 60 minutes at 37° C. Reactions were terminated by rapid filtration over GF/B filters presoaked in ice cold wash buffer for 90 minutes. The filters were then washed 6 times with 0.3 mL of ice cold wash buffer (50 mM Tris, 5 mM MgCl2, pH 7.4). The filters were dried, covered with Microscint-20, dark adapted for 5 minutes, and counted on a 2 minute [^35S] protocol on a Packard TopCount LSC."}, "OSGPR114 [4]": {"target": "T2, OSGPR114", "test": "FLIPR intracellular calcium assay, CHO-OSGPR114 cells", "format": "cell-based", "conditions": "co-addition with LPA", "procedure": "For example, in one method employed herein, CHO and CHO-114 cells were seeded at a concentration of 50K cells/well in […] growth media in clear, flat-bottom 96-well black assay plates and incubated overnight at 37 C. The growth media is aspirated from the cells and a dye solution ([…]) added to each well. The dye solution consists of 2 mM probenecid, 2 mM HBSS, […] in a growth media minus antibiotics solution. The cells are loaded with the dye for 1 h at 37 C before aspiration and rinsing with wash buffer (20 mM HBSS+2 mM Probenecid). Compound plates are then prepared with 4× compound/control. 150 ul of wash buffer is added to each well. Once the FLIPR is fully calibrated, compound is added to the plate and the release of calcium measured using 0.4 exposure length and a laser set at 0.3W."}},
  "data": [
    {"molecule": "Nc1ncnc2c1ncn2[C@@H]1O[C@H](COP(=O)(O)OP(=O)(O)O)[C@@H](O)[C@H]1O", "note": "[ADP]", "values": [
      {"measurement": "effect on fluorescence (β-galactosidase reporter)", "setting": "OSGPR78", "value": "no effect"},
      {"measurement": "effect on fluorescence (β-galactosidase reporter)", "setting": "OSGPR114 [1]", "value": "no effect"}
    ]},
    {"molecule": "platelet-activating factor [PAF]", "values": [
      {"measurement": "effect on fluorescence (β-galactosidase reporter)", "setting": "OSGPR78", "value": "no effect"},
      {"measurement": "effect on fluorescence (β-galactosidase reporter)", "setting": "OSGPR114 [1]", "value": "no effect"}
    ]},
    {"molecule": "CCCCCCCCC=CCCCCCCCC(=O)OCC(O)COP(=O)(O)O", "note": "(centres unmarked) [Oleoyl LPA, oleoyl lysophosphatidic acid]", "values": [
      {"measurement": "response in vector transformed yeast cells", "setting": "[2]", "value": "not in vector transformed cells"},
      {"measurement": "response in vector transformed yeast cells", "setting": "[2]; listed as oleoyl LPA", "value": "did not respond"},
      {"measurement": "Emax, GTPγS binding", "setting": "OSGPR114 [3]", "value": "comparable Emax values"},
      {"measurement": "effect on fluorescence (β-galactosidase reporter)", "setting": "OSGPR78", "value": "increase in fluorescence"},
      {"measurement": "response in yeast G-alpha chimera strains", "setting": "OSGPR114 [1]; chimeras of Galpha q (20156) and Galphas (20202)", "value": "could produce a response"},
      {"measurement": "effect on fluorescence (β-galactosidase reporter)", "setting": "OSGPR114 [1]", "value": "increase in fluorescence"},
      {"measurement": "EC50", "setting": "endogenous CHO receptor", "value": 0.768, "unit": "µM"}
    ]},
    {"molecule": "CCCCCCCCCCCCCCCC(=O)OC[C@@H](O)COP(=O)(O)O", "note": "[palmitoyl LPA, palmitoyl lysophosphatidic acid]", "values": [
      {"measurement": "response in vector transformed yeast cells", "setting": "[2]", "value": "not in vector transformed cells"},
      {"measurement": "effect on fluorescence (β-galactosidase reporter)", "setting": "OSGPR78", "value": "increase in fluorescence"},
      {"measurement": "effect on fluorescence (β-galactosidase reporter)", "setting": "OSGPR114 [1]", "value": "increase in fluorescence"}
    ]},
    {"molecule": "CCCCCCCCCCCCCC(=O)OC[C@@H](O)COP(=O)(O)O", "note": "[myristoyl LPA, myristoyl lysophosphatidic acid]", "values": [
      {"measurement": "response in vector transformed yeast cells", "setting": "[2]", "value": "not in vector transformed cells"},
      {"measurement": "effect on fluorescence (β-galactosidase reporter)", "setting": "OSGPR78", "value": "increase in fluorescence"},
      {"measurement": "effect on fluorescence (β-galactosidase reporter)", "setting": "OSGPR114 [1]", "value": "increase in fluorescence"}
    ]},
    {"molecule": "pertussis toxin", "values": [
      {"measurement": "effect of co-addition on LPA calcium response", "setting": "OSGPR114 [4]", "value": "completely abolished this effect"}
    ]},
    {"molecule": "Nc1ncnc2c1ncn2[C@@H]1O[C@H](COP(=O)(O)OP(=O)(O)OP(=O)(O)O)[C@@H](O)[C@H]1O", "note": "[ATP]", "values": [
      {"measurement": "effect on fluorescence (β-galactosidase reporter)", "setting": "OSGPR78", "value": "no effect"},
      {"measurement": "effect on fluorescence (β-galactosidase reporter)", "setting": "OSGPR114 [1]", "value": "no effect"}
    ]},
    {"molecule": "CCCCCCCCCCCCCCCCCC(=O)OC[C@@H](O)COP(=O)(O)O", "note": "[stearoyl LPA, stearoyl lysophosphatidic acid]", "values": [
      {"measurement": "response in vector transformed yeast cells", "setting": "[2]", "value": "not in vector transformed cells"},
      {"measurement": "effect on fluorescence (β-galactosidase reporter)", "setting": "OSGPR78", "value": "increase in fluorescence"},
      {"measurement": "effect on fluorescence (β-galactosidase reporter)", "setting": "OSGPR114 [1]", "value": "increase in fluorescence"}
    ]}
  ]
}
